Measurements reported in US12264173B2 (GILEAD SCIENCES, INC., priority 2020, dated 2025).
Like-named read-outs stand apart in the source and are kept apart here.

Columns and labels:
Format in all cases: cell-based
RSV A2 = assay: RSV NHBE EC50 (RSV A2 antiviral assay in NHBE cells); details: read-out: RSV NHBE EC50
Protocol: Normal human bronchial epithelial (NHBE) cells were purchased from Lonza (Walkersville, MD, Cat #CC-2540) and cultured in Bronchial Epithelial Growth Media (BEGM) (Lonza, Walkersville, MD, Cat #CC-3170). The cells were passaged 1-2 times per week to maintain <80% confluency. The NHBE cells were discarded after 6 passages in culture.
To conduct the RSV A2 antiviral assay, NHBE cells were plated in 96-well plates at a density of 7,500 cells per well in BEGM and allowed to attach overnight at 37° C. Following attachment, 100 μL of cell culture media was removed and 3-fold serially diluted compound was added using a Hewlett-Packard D300 Digital Dispenser. The final concentration of DMSO was normalized to 0.05%. Following compound addition, the NHBE cells were infected by the addition of 100 μL of RSV A2 at a titer of 1×10^4.5 tissue culture infectious doses/mL in BEGM and then incubated at 37° C. for 4 days. The NHBE cells were then allowed to equilibrate to 25° C. and cell viability was determined by removing 100 μL of culture medium and adding 100 μL of Cell-Titer Glo viability reagent. The mixtures were incubated for 10 minutes at 25° C., and the luminescence signal was quantified on an Envision luminescence plate reader.

RSV strain A2 = assay: microbe, parasite or virus in culture; details: read-out: RSV HEp-2 EC50
Protocol: Antiviral activity against RSV is determined using an infectious cytopathic cell protection assay in HEp-2 cells. In this assay, compounds inhibiting viral infection and/or replication produce a cytoprotective effect against the virus-induced cell killing that can be quantified using a cell viability reagent. The techniques used here are novel adaptations of methods described in published literature (Chapman et al., Antimicrob Agents Chemother. 2007, 51(9):3346-53.).
HEp-2 cells are obtained from ATCC (Manassas, VI) and maintained in MEM media supplemented with 10% fetal bovine serum and penicillin/streptomycin. Cells are passaged twice a week and kept at subconfluent stage. Commercial stock of RSV strain A2 (Advanced Biotechnologies, Columbia, MD) is titered before compound testing to determine the appropriate dilution of the virus stock that generates desirable cytopathic effect in HEp-2 cells.
For antiviral tests, HEp-2 cells are grown in large cell culture flasks to near confluency but not fully so. The compounds to be tested are prediluted in DMSO in 384-well compound dilution plates, either in an 8 or 40 sample per plate standardized dose response format. 3-fold serial dilution increments of each test compound are prepared in the plates and test samples are transferred via acoustic transfer apparatus (Echo, Labcyte) at 100 nL per well into cell culture assay 384-well plates. Each compound dilution is transferred in single or quadruplicate samples into dry assay plates, which are stored until assay is ready to go. The positive and negative controls are laid out in opposite on ends of the plate in vertical blocks (1 column).
Subsequently, an infectious mixture is prepared using an appropriate dilution of virus stock previously determined by titration with cells at a density of 50,000/mL and 20 µL/well is added to test plates w/compounds via automation (uFlow, Biotek). Each plate includes negative and positive controls (16 replicates each) to create 0% and 100% virus inhibition standards, respectively. Following the infection with RSV, testing plates are incubated for 4 days in a 37° C. cell culture incubator. After the incubation, a cell viability reagent, Cell TiterGlo (Promega, Madison, WI) is added to the assay plates, which are incubated briefly, and a luminescent readout is measured (Envision, Perkin Elmer) in all the assay plates. The RSV-induced cytopathic effect, percentage inhibition, is determined from the levels of remaining cell viability. […] Various potent anti-RSV tool compounds are used as positive controls for antiviral activity.

HRV16 = HRV16 HeLa EC50 (cytopathic effect in H1-HeLa cells)
Protocol: H1-HeLa cells, cultured in complete DMEM medium containing 10% heat-inactivated FBS and 1% Penicillin/Streptomycin, were seeded in 96 well plates at 3000 cells/well one day prior to compound dosing and infection. The antiviral activity of each compound was measured in triplicate. Compounds were added directly to the cell cultures in serial 3-fold dilutions using the HP300 digital dispenser (Hewlett Packard, Palo Alto, CA) immediately prior to infection. The plates were transferred to BSL-2 containment and the appropriate dilution of virus stock, previously determined by titration and prepared in cell culture media, was added to test plates containing cells and serially diluted compounds. Each plate included 6 wells of infected untreated cells and 6 wells of uninfected cells that served as 0% and 100% virus inhibition control, respectively. Following the infection, test plates were incubated for 96 h in a tissue culture incubator set to 33° C./5% CO2. Following incubation, the H1-HeLa cells were removed from incubation and allowed to equilibrate to 25° C. Cell viability was determined by removing 100 μL of culture medium and adding 100 μL of Cell-Titer Glo viability reagent. The mixtures were incubated on a shaker for 10 minutes at 25° C., and the luminescence signal was quantified on an Envision luminescence plate reader.

[1] = Table 3, NHBE cells, RSV A2, 4 days
[2] = Table 3, HEp-2 cells, RSV A2, 4 days
[3] = Table 3, H1-HeLa cells, 96 h, read-out: HRV16 HeLa EC50
[4] = human respiratory syncytial virus, NHBE, 96 h, Table 3, NHBE cells, RSV A2, 4 days
[5] = human respiratory syncytial virus, HEp-2, 96 h, Table 3, HEp-2 cells, RSV A2, 4 days
[6] = 96 h, Table 3, H1-HeLa cells, 96 h, read-out: HRV16 HeLa EC50
[7] = human respiratory syncytial virus, NHBE, Table 5 comparative activity, 2',3'-OH vs -OC(O)iPr
[8] = human respiratory syncytial virus, HEp-2, Table 5 comparative activity, 2',3'-OH vs -OC(O)iPr
[9] = HeLa, Table 5 comparative activity, 2',3'-OH vs -OC(O)iPr, read-out: HRV16 HeLa EC50

## CC(C)C(=O)OC1C(c2ccc3c(N)ncnn23)OC(C#N)(COP(=O)(NC(C)C(=O)OC2CCN(C)C2)Oc2ccccc2)C1OC(=O)C(C)C (single isomer, unassigned) [Example 229]
RSV A2; [1]
  EC50: 0.023 µM
RSV strain A2; [2]
  EC50: 0.016 µM
HRV16; [3]
  EC50: 0.676 µM

## CC(C)C(=O)OC1C(c2ccc3c(N)ncnn23)OC(C#N)(COP(=O)(NC(C)C(=O)OC2CCN(C)C2)Oc2ccccc2)C1OC(=O)C(C)C (single isomer, unassigned) [Example 230]
RSV A2; [1]
  EC50: 0.047 µM
RSV strain A2; [2]
  EC50: 0.102 µM
HRV16; [3]
  EC50: 0.864 µM

## CC(C)C(=O)O[C@H]1[C@H](c2ccc3c(N)ncnn23)O[C@](C#N)(COP(=O)(N[C@@H](C)C(=O)O[C@H]2CCOC2)Oc2ccccc2)[C@H]1OC(=O)C(C)C (single isomer, unassigned) [Example 240]
RSV A2; [4]
  EC50: 0.024 µM
RSV strain A2; [5]
  EC50: 0.02 µM
HRV16; [6]
  EC50: 0.125 µM

## CC(C)C(=O)O[C@H]1[C@H](c2ccc3c(N)ncnn23)O[C@](C#N)(COP(=O)(N[C@@H](C)C(=O)O[C@H]2CCOC2)Oc2ccccc2)[C@H]1OC(=O)C(C)C (single isomer, unassigned) [Example 241]
RSV A2; [1]
  EC50: 0.013 µM
RSV strain A2; [2]
  EC50: 0.025 µM
HRV16; [3]
  EC50: 0.131 µM

## C[C@H](NP(=O)(OC[C@@]1(C#N)O[C@@H](c2ccc3c(N)ncnn23)[C@H](O)[C@@H]1O)Oc1ccccc1)C(=O)O[C@H]1CCN(C)C1 (stereo partly drawn) [Example 15, (S)-1-methylpyrrolidin-3-yl ((((2R,3S,4R,5S)-5-(4-aminopyrrolo[2,1-f][1,2,4]triazin-7-yl)-2-cyano-3,4-dihydroxytetrahydrofuran-2-yl)methoxy)(phenoxy)phosphoryl)-L-alaninate]
RSV A2; [7]
  EC50: 3.25 µM
RSV strain A2; [8]
  EC50: 4.33 µM
HRV16; [9]
  EC50: 11.4 µM

## C[C@H](NP(=O)(OC[C@@]1(C#N)O[C@@H](c2ccc3c(N)ncnn23)[C@H](O)[C@@H]1O)Oc1ccccc1)C(=O)OC1CCN(C)CC1 (some centres unmarked) [Example 19]
RSV A2; [7]
  EC50: > 5 µM
RSV strain A2; [8]
  EC50: 4.19 µM
HRV16; HeLa, read-out: HRV16 HeLa EC50, Table 5 comparative activity, 2',3'-OH vs -OC(O)iPr
  EC50: ≥ 50 µM

## C[C@H](NP(=O)(OC[C@@]1(C#N)O[C@@H](c2ccc3c(N)ncnn23)[C@H](O)[C@@H]1O)Oc1ccccc1)C(=O)OC1COC1 (stereo partly drawn) [Example 44, oxetan-3-yl ((((2R,3S,4R,5S)-5-(4-aminopyrrolo[2,1-f][1,2,4]triazin-7-yl)-2-cyano-3,4-dihydroxytetrahydrofuran-2-yl)methoxy)(phenoxy)phosphoryl)-L-alaninate]
RSV A2; [7]
  EC50: 1.8 µM
RSV strain A2; [8]
  EC50: 0.997 µM
HRV16; [9]
  EC50: 4.26 µM

## CC(C)C(=O)O[C@H]1[C@H](c2ccc3c(N)ncnn23)O[C@](C#N)(COP(=O)(N[C@@H](C)C(=O)OC2CCN(C)CC2)Oc2ccccc2)[C@H]1OC(=O)C(C)C (stereo partly drawn) [Example 162, (2R,3S,4S,5S)-5-(4-aminopyrrolo[2,1-f][1,2,4]triazin-7-yl)-2-cyano-2-((((((S)-1-((1-methylpiperidin-4-yl)oxy)-1-oxopropan-2-yl)amino)(phenoxy)phosphoryl)oxy)methyl)tetrahydrofuran-3,4-diyl bis(2-methylpropanoate)]
RSV A2; [4]
  EC50: 0.028 µM
RSV A2; [7]
  EC50: 0.028 µM
RSV strain A2; [5]
  EC50: 0.179 µM
RSV strain A2; [8]
  EC50: 0.179 µM
HRV16; [6]
  EC50: 1.62 µM
HRV16; [9]
  EC50: 1.62 µM

## COC(=O)[C@H](C)N[P@](=O)(OC[C@@]1(C#N)O[C@@H](c2ccc3c(NC(=O)C4CCN(C)CC4)ncnn23)[C@H](OC(=O)C2CCN(C)CC2)[C@@H]1OC(=O)C1CCN(C)CC1)Oc1ccccc1 [Example 220, (2R,3S,4S,5S)-2-cyano-2-((((S)-(((S)-1-methoxy-1-oxopropan-2-yl)amino)(phenoxy)phosphoryl)oxy)methyl)-5-(4-(1-methylpiperidine-4-carboxamido)pyrrolo[2,1-f][1,2,4]triazin-7-yl)tetrahydrofuran-3,4-diyl bis(1-methylpiperidine-4-carboxylate)]
RSV A2; [4]
  EC50: 4.86 µM
RSV strain A2; [5]
  EC50: 0.167 µM
HRV16; [6]
  EC50: 13.5 µM

## CC(C)[C@H](N)C(=O)O[C@H]1[C@H](c2ccc3c(N)ncnn23)O[C@](C#N)(COP(=O)(N[C@@H](C)C(=O)OC2CCOCC2)Oc2ccccc2)[C@H]1OC(=O)[C@@H](N)C(C)C (stereo partly drawn) [Example 221, (2R,3S,4S,5S)-5-(4-aminopyrrolo[2,1-f][1,2,4]triazin-7-yl)-2-cyano-2-((((((S)-1-oxo-1-((tetrahydro-2H-pyran-4-yl)oxy)propan-2-yl)amino)(phenoxy)phosphoryl)oxy)methyl)tetrahydrofuran-3,4-diyl (2S,2'S)-bis(2-amino-3-methylbutanoate)]
RSV A2; [1]
  EC50: 1.17 µM
RSV strain A2; [2]
  EC50: 0.66 µM
HRV16; [3]
  EC50: 8.99 µM

## COCCCOC(=O)[C@H](C)NP(=O)(OC[C@@]1(C#N)O[C@@H](c2ccc3c(N)ncnn23)[C@H](OC(=O)C(C)C)[C@@H]1OC(=O)C(C)C)Oc1ccccc1 (stereo partly drawn) [Example 222, (2R,3S,4S,5S)-5-(4-Aminopyrrolo[2,1-f][1,2,4]triazin-7-yl)-2-cyano-2-((((((S)-1-(3-methoxypropoxy)-1-oxopropan-2-yl)amino)(phenoxy)phosphoryl)oxy)methyl) tetrahydrofuran-3,4-diyl bis(2-methylpropanoate)]
RSV A2; [4]
  EC50: 0.025 µM
RSV strain A2; [5]
  EC50: 0.027 µM
HRV16; [6]
  EC50: 0.146 µM

## CC(C)C(=O)O[C@H]1[C@H](c2ccc3c(N)ncnn23)O[C@](C#N)(COP(=O)(N[C@@H](C)C(=O)OCCN(C(C)C)C(C)C)Oc2ccccc2)[C@H]1OC(=O)C(C)C (stereo partly drawn) [Example 224, (2R,3S,4S,5S)-5-(4-aminopyrrolo[2,1-f][1,2,4]triazin-7-yl)-2-cyano-2-((((((S)-1-(2-(diisopropylamino)ethoxy)-1-oxopropan-2-yl)amino)(phenoxy)phosphoryl)oxy)methyl)tetrahydrofuran-3,4-diyl bis(2-methylpropanoate)]
RSV A2; [4]
  EC50: 0.986 µM
RSV strain A2; [5]
  EC50: 0.378 µM
HRV16; [6]
  EC50: 1.7 µM

## COC(=O)[C@H](C)NP(=O)(OC[C@@]1(C#N)O[C@@H](c2ccc3c(N)ncnn23)[C@H](OC(=O)C(C)C)[C@@H]1OC(=O)C(C)C)Oc1ccc(C[C@H](N)C(=O)OC(C)C)cc1 (stereo partly drawn) [Example 251, (2R,3S,4S,5S)-2-((((4-((S)-2-amino-3-isopropoxy-3-oxopropyl)phenoxy)(((S)-1-methoxy-1-oxopropan-2-yl)amino)phosphoryl)oxy)methyl)-5-(4-aminopyrrolo[2,1-f][1,2,4]triazin-7-yl)-2-cyanotetrahydrofuran-3,4-diyl bis(2-methylpropanoate)]
RSV A2; [4]
  EC50: 0.037 µM
RSV strain A2; [5]
  EC50: 0.186 µM
